Tests used:
Acetylcholinesterase = Acetylcholinesterase (Homo sapiens, UniProt P22303); type: functional
[1] = molecular target: T1, Muscarinic acetylcholine receptor M2 (Homo sapiens, UniProt P08172)
T1 sequence (P08172 whole entry): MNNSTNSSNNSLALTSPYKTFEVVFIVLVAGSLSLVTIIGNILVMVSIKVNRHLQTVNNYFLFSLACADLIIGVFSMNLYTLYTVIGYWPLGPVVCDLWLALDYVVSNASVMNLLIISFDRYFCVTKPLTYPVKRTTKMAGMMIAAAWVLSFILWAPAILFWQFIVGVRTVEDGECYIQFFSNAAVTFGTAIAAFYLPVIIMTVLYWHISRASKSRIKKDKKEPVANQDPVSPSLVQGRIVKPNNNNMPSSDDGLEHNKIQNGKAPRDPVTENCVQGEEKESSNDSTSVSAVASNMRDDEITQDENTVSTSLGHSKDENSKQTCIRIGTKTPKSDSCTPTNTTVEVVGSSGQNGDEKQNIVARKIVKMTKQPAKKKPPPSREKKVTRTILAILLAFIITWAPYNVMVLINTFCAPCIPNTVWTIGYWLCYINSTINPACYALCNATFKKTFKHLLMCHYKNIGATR

D(1A) dopamine receptor = D(1A) dopamine receptor (Homo sapiens, UniProt P21728)
D(3) dopamine receptor = D(3) dopamine receptor (Homo sapiens, UniProt P35462)
Histamine H3 receptor = Histamine H3 receptor (Homo sapiens, UniProt Q9Y5N1)
[2] = molecular target: T2, 5-hydroxytryptamine receptor 1A (Homo sapiens, UniProt P08908)
T2 sequence (P08908 whole entry): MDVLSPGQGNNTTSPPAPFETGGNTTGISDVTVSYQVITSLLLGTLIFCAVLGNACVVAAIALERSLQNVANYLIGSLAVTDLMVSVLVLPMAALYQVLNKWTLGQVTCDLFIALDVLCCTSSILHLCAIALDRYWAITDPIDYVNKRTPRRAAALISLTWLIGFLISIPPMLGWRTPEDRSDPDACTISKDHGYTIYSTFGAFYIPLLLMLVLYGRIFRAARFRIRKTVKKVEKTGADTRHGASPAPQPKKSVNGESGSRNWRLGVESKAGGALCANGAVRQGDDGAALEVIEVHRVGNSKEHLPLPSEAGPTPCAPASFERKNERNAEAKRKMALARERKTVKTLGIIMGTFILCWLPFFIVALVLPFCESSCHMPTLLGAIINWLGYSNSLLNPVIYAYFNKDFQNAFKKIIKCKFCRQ

[3] = molecular target: 5-hydroxytryptamine receptor 2B (Homo sapiens, UniProt P41595); type: functional, cell-based
[4] = molecular target: Voltage-gated inwardly rectifying potassium channel KCNH2 (Homo sapiens, UniProt Q12809); type: functional
[5] = molecular target: T3, Amine oxidase [flavin-containing] A (Homo sapiens, UniProt P21397); type: functional
T3 sequence (P21397 whole entry): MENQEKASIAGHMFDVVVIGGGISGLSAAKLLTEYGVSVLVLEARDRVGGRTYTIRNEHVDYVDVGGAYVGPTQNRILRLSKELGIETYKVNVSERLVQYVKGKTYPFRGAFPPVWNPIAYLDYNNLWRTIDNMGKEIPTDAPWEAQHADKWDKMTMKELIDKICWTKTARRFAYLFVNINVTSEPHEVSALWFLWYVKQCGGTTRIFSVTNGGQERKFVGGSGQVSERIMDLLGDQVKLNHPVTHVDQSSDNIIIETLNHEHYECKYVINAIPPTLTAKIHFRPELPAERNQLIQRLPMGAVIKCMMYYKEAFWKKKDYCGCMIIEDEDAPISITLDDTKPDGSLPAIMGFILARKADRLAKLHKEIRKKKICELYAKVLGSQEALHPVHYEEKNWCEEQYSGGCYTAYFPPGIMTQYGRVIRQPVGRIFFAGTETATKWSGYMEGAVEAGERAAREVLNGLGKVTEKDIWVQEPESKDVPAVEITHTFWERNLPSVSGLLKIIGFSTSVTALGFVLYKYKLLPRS

Mu-type opioid receptor = Mu-type opioid receptor (Homo sapiens, UniProt P35372)
[6] = molecular target: cGMP-inhibited 3',5'-cyclic phosphodiesterase 3A (Homo sapiens, UniProt Q14432); type: functional
[7] = molecular target: 3',5'-cyclic-AMP phosphodiesterase 4A (Homo sapiens, UniProt P27815); type: functional
[8] = molecular target: T4, Prostaglandin G/H synthase 1 (Homo sapiens, UniProt P23219); type: functional
[9] = molecular target: T4, Prostaglandin G/H synthase 1; type: functional; remark: listed apart in the source
[10] = molecular target: Sodium-dependent noradrenaline transporter (Homo sapiens, UniProt P23975)
Thromboxane A2 receptor [11] = molecular target: T5, Thromboxane A2 receptor (Homo sapiens, UniProt P21731); type: functional, cell-based
T5 sequence (P21731 whole entry): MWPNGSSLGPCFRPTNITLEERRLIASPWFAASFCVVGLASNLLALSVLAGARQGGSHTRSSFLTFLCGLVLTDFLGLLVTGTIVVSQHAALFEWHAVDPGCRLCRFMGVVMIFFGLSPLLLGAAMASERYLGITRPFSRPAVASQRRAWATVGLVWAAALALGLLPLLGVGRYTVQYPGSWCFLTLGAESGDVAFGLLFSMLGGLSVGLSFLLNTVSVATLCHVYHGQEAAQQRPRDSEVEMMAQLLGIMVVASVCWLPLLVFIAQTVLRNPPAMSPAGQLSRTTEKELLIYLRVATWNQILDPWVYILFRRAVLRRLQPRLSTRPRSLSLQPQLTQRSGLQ

Thromboxane A2 receptor [12] = molecular target: T5, Thromboxane A2 receptor; type: functional, cell-based; remark: listed apart in the source
Further: assay procedure not described here.

Acetylcholinesterase, sequence (P22303 whole entry): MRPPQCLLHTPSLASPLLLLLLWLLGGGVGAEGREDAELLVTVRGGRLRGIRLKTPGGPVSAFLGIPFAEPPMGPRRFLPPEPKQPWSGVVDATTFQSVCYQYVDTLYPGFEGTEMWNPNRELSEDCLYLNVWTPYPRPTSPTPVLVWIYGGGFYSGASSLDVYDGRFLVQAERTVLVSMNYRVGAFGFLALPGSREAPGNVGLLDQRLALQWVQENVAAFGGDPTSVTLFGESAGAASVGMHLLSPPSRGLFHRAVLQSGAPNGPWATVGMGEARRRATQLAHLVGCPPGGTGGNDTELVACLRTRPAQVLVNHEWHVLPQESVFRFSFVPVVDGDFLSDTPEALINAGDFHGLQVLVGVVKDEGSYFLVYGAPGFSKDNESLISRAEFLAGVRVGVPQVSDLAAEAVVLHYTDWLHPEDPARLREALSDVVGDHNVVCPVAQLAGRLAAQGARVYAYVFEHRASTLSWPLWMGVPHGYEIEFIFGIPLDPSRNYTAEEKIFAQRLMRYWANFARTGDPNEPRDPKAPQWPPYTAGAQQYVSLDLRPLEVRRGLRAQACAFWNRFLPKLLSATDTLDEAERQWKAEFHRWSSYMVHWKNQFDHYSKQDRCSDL
D(1A) dopamine receptor, sequence (P21728 whole entry): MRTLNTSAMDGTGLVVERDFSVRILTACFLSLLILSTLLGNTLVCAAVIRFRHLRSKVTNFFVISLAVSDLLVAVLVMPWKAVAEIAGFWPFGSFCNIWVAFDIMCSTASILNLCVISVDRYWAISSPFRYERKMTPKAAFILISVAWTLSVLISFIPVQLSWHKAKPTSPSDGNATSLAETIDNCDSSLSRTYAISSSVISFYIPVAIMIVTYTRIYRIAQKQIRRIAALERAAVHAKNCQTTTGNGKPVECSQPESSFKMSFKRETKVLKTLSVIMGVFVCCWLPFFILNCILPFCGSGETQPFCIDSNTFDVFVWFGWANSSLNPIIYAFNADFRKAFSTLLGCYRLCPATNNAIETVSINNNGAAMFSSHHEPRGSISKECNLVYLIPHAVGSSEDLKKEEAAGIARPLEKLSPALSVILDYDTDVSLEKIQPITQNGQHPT
Mu-type opioid receptor, sequence (P35372 whole entry): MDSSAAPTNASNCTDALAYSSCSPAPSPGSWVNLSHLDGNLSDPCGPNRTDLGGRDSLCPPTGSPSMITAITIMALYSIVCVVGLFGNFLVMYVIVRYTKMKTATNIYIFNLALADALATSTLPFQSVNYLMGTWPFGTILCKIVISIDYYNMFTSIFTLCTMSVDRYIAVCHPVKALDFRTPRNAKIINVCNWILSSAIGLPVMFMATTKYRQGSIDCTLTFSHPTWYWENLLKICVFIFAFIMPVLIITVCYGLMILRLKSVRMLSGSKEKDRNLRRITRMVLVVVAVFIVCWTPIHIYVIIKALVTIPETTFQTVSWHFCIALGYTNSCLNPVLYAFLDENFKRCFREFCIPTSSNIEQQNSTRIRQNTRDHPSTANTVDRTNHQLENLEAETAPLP
T4 sequence (P23219 whole entry): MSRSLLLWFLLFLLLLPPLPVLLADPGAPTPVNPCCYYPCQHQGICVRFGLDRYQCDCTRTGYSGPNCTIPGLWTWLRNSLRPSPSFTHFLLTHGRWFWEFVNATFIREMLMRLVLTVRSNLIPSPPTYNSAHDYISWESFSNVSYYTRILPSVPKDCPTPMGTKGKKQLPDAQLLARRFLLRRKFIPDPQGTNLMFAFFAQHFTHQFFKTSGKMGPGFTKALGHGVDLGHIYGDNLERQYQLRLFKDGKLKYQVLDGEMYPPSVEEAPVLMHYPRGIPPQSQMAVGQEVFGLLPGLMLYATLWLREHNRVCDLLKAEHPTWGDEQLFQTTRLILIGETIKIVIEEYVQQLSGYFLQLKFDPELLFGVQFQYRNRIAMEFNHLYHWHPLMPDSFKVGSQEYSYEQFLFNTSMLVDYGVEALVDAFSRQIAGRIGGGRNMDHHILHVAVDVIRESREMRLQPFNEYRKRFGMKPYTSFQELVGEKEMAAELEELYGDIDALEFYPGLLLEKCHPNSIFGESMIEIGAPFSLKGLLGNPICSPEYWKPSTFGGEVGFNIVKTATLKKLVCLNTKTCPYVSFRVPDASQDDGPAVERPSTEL
5-hydroxytryptamine receptor 2B, sequence (P41595 whole entry): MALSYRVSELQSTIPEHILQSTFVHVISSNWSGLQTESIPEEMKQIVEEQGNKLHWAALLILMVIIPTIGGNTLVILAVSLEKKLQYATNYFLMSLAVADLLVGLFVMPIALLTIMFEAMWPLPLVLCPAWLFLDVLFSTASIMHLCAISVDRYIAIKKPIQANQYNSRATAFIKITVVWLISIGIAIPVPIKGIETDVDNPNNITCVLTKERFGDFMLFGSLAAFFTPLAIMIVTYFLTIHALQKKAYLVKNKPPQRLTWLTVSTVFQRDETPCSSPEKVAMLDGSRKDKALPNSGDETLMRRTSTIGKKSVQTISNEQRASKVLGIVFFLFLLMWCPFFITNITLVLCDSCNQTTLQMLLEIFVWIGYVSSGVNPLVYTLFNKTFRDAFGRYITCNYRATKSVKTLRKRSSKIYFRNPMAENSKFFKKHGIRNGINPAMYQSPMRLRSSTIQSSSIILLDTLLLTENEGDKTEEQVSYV
Histamine H3 receptor, sequence (Q9Y5N1 whole entry): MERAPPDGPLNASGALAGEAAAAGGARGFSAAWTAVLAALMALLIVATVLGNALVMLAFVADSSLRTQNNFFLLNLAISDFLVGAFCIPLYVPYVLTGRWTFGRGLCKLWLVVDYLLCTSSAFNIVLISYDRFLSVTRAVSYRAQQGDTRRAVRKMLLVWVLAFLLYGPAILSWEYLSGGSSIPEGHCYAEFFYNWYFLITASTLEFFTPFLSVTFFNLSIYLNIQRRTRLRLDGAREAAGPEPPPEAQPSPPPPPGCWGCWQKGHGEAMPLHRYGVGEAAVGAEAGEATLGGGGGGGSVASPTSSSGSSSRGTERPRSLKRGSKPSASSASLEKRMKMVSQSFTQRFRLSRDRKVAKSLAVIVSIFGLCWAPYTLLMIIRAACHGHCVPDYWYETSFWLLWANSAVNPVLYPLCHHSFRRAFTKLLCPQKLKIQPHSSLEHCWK
3',5'-cyclic-AMP phosphodiesterase 4A, sequence (P27815 whole entry): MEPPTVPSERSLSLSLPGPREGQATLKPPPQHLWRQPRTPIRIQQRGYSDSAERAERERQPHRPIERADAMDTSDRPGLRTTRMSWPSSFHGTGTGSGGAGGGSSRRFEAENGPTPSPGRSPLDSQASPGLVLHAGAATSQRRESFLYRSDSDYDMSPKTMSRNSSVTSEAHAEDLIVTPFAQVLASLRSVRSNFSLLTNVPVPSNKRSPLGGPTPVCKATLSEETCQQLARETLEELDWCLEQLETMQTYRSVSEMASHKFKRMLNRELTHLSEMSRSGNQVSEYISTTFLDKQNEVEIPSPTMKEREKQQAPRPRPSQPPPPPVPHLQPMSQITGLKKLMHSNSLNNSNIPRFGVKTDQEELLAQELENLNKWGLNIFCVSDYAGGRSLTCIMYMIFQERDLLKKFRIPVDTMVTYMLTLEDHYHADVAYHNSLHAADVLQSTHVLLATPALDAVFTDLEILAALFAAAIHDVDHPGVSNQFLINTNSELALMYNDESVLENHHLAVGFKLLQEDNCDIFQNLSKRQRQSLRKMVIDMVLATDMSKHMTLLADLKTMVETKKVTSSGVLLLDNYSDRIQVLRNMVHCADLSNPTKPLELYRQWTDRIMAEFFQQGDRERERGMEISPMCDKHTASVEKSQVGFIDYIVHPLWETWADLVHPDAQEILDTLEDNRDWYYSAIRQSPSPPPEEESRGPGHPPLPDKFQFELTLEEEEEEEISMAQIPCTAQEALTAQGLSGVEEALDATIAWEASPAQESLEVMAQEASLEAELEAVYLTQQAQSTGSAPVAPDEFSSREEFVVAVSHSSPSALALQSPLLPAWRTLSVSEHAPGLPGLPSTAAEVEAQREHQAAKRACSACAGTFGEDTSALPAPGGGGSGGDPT
D(3) dopamine receptor, sequence (P35462 whole entry): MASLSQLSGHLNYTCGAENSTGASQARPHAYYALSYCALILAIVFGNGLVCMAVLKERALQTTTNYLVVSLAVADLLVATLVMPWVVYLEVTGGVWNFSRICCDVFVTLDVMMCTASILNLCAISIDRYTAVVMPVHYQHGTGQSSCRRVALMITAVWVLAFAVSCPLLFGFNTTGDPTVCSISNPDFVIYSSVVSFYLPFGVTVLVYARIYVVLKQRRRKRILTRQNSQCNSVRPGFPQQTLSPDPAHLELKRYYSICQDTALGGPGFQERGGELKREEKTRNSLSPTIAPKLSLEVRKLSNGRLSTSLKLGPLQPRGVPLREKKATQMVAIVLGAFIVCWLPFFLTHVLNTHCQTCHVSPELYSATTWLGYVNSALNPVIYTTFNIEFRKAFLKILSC
Sodium-dependent noradrenaline transporter, sequence (P23975 whole entry): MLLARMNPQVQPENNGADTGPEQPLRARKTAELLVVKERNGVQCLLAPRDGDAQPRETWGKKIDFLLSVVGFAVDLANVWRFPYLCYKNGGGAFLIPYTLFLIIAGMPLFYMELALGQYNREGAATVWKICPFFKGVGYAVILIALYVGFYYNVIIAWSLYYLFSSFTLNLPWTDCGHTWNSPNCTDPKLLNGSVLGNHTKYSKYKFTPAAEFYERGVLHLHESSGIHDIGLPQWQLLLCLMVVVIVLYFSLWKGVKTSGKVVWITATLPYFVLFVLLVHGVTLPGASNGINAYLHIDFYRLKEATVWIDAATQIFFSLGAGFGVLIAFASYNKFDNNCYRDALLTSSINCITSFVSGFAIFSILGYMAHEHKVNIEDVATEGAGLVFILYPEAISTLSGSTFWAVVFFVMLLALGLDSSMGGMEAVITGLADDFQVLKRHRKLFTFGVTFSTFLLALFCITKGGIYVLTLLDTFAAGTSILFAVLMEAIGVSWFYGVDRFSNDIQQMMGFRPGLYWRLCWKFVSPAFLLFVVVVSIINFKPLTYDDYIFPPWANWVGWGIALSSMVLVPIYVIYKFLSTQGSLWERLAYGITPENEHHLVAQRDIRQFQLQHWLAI

FC(F)(F)c1ccc(CNc2ccc(Cc3c[nH]c4ncc(Cl)cc34)cn2)cn1 [PEXIDARTINIB]
AC50 (Acetylcholinesterase): > 30 µM
AC50 [1]: 0.496 µM
AC50 (D(1A) dopamine receptor): 20.2 µM
AC50 (D(3) dopamine receptor): 10.2 µM
AC50 (Histamine H3 receptor): > 30 µM
AC50 [2]: 0.627 µM
AC50 [3]: > 30 µM
AC50 [4]: 8.6 µM
AC50 [5]: > 30 µM
AC50 (Mu-type opioid receptor): 13.4 µM
AC50 [6]: > 30 µM
AC50 [7]: > 30 µM
AC50 [8]: > 30 µM
AC50 [9]: > 30 µM
AC50 [10]: 3.96 µM
AC50 (Thromboxane A2 receptor [11]): > 30 µM
AC50 (Thromboxane A2 receptor [12]): 8.61 µM

CC(CN1CC(=O)NC(=O)C1)N1CC(=O)NC(=O)C1 (stereo unspecified) [RAZOXANE]
AC50 (Acetylcholinesterase): > 10 µM
AC50 [1]: > 30 µM
AC50 (D(1A) dopamine receptor): > 30 µM
AC50 (D(3) dopamine receptor): > 30 µM
AC50 (Histamine H3 receptor): > 30 µM
AC50 [2]: > 30 µM
AC50 [3]: > 30 µM
AC50 [4]: > 30 µM
AC50 [5]: > 30 µM
AC50 (Mu-type opioid receptor): > 30 µM
AC50 [6]: > 30 µM
AC50 [7]: > 30 µM
AC50 [8]: > 3 µM
AC50 [9]: 20.4 µM
AC50 [10]: > 30 µM
AC50 (Thromboxane A2 receptor [11]): > 30 µM
AC50 (Thromboxane A2 receptor [12]): > 30 µM

O=C1/C(=C2\Nc3ccc(S(=O)(=O)O)cc3C2=O)Nc2ccc(S(=O)(=O)O)cc21 [INDIGOTINDISULFONATE]
AC50 (Acetylcholinesterase): > 30 µM
AC50 [1]: > 30 µM
AC50 (D(1A) dopamine receptor): > 30 µM
AC50 (D(3) dopamine receptor): > 30 µM
AC50 (Histamine H3 receptor): > 30 µM
AC50 [2]: > 30 µM
AC50 [3]: > 30 µM
AC50 [4]: > 30 µM
AC50 [5]: > 30 µM
AC50 (Mu-type opioid receptor): > 30 µM
AC50 [6]: > 30 µM
AC50 [7]: > 30 µM
AC50 [8]: > 30 µM
AC50 [9]: 21.5 µM
AC50 [10]: > 30 µM
AC50 (Thromboxane A2 receptor [11]): > 30 µM
AC50 (Thromboxane A2 receptor [12]): > 30 µM

CC(=O)Oc1cc(C(F)(F)F)ccc1C(=O)O [TRIFLUSAL]
AC50 (Acetylcholinesterase): > 30 µM
AC50 [1]: > 30 µM
AC50 (D(1A) dopamine receptor): > 30 µM
AC50 (D(3) dopamine receptor): > 30 µM
AC50 (Histamine H3 receptor): > 30 µM
AC50 [2]: > 30 µM
AC50 [3]: > 30 µM
AC50 [5]: > 30 µM
AC50 (Mu-type opioid receptor): > 30 µM
AC50 [6]: > 30 µM
AC50 [7]: > 30 µM
AC50 [8]: > 30 µM
AC50 [9]: > 30 µM
AC50 [10]: > 30 µM
AC50 (Thromboxane A2 receptor [11]): > 30 µM
AC50 (Thromboxane A2 receptor [12]): > 30 µM

N[C@@H](CS)C(=O)O [CYSTEINE]
AC50 (Acetylcholinesterase): > 30 µM
AC50 [1]: > 30 µM
AC50 (D(1A) dopamine receptor): > 30 µM
AC50 (D(3) dopamine receptor): > 30 µM
AC50 (Histamine H3 receptor): > 30 µM
AC50 [2]: > 30 µM
AC50 [3]: > 30 µM
AC50 [5]: > 30 µM
AC50 (Mu-type opioid receptor): > 30 µM
AC50 [6]: > 30 µM
AC50 [7]: > 30 µM
AC50 [8]: > 30 µM
AC50 [9]: 4.66 µM
AC50 [10]: > 30 µM
AC50 (Thromboxane A2 receptor [11]): > 30 µM
AC50 (Thromboxane A2 receptor [12]): > 30 µM

CCOC(=O)c1c(C)cc2c(CO)n[nH]c(=O)c2c1C [OXAGRELATE]
AC50 (Acetylcholinesterase): > 30 µM
AC50 [1]: > 30 µM
AC50 (D(1A) dopamine receptor): > 30 µM
AC50 (D(3) dopamine receptor): > 30 µM
AC50 (Histamine H3 receptor): > 30 µM
AC50 [2]: > 30 µM
AC50 [3]: > 30 µM
AC50 [5]: > 30 µM
AC50 (Mu-type opioid receptor): > 30 µM
AC50 [6]: 6.48 µM
AC50 [7]: > 30 µM
AC50 [8]: > 30 µM
AC50 [9]: > 30 µM
AC50 [10]: > 30 µM
AC50 (Thromboxane A2 receptor [11]): > 30 µM
AC50 (Thromboxane A2 receptor [12]): > 30 µM

O=C(O)CO [GLYCOLIC ACID]
AC50 (Acetylcholinesterase): > 30 µM
AC50 [1]: > 30 µM
AC50 (D(1A) dopamine receptor): > 30 µM
AC50 (D(3) dopamine receptor): > 30 µM
AC50 (Histamine H3 receptor): > 30 µM
AC50 [2]: > 30 µM
AC50 [3]: > 30 µM
AC50 [5]: > 30 µM
AC50 (Mu-type opioid receptor): > 30 µM
AC50 [6]: > 30 µM
AC50 [7]: > 30 µM
AC50 [8]: > 30 µM
AC50 [9]: > 30 µM
AC50 [10]: > 30 µM
AC50 (Thromboxane A2 receptor [11]): > 30 µM
AC50 (Thromboxane A2 receptor [12]): > 30 µM

CC[C@@]1(O)C(=O)OCc2c1cc1n(c2=O)Cc2cc3c([N+](=O)[O-])cccc3nc2-1 [RUBITECAN]
AC50 (Acetylcholinesterase): 3.65 µM
AC50 [1]: > 30 µM
AC50 (D(1A) dopamine receptor): > 30 µM
AC50 (D(3) dopamine receptor): > 30 µM
AC50 (Histamine H3 receptor): > 30 µM
AC50 [2]: > 30 µM
AC50 [3]: > 30 µM
AC50 [5]: > 30 µM
AC50 (Mu-type opioid receptor): > 30 µM
AC50 [6]: > 30 µM
AC50 [7]: > 30 µM
AC50 [8]: > 30 µM
AC50 [9]: 26.8 µM
AC50 [10]: > 30 µM
AC50 (Thromboxane A2 receptor [11]): > 30 µM
AC50 (Thromboxane A2 receptor [12]): > 10 µM
